Molecules are shown by their SMILES.

The term IC50 denotes the concentration that gives 50% inhibition.

Sequence of Diacylglycerol kinase alpha (P23743 whole entry): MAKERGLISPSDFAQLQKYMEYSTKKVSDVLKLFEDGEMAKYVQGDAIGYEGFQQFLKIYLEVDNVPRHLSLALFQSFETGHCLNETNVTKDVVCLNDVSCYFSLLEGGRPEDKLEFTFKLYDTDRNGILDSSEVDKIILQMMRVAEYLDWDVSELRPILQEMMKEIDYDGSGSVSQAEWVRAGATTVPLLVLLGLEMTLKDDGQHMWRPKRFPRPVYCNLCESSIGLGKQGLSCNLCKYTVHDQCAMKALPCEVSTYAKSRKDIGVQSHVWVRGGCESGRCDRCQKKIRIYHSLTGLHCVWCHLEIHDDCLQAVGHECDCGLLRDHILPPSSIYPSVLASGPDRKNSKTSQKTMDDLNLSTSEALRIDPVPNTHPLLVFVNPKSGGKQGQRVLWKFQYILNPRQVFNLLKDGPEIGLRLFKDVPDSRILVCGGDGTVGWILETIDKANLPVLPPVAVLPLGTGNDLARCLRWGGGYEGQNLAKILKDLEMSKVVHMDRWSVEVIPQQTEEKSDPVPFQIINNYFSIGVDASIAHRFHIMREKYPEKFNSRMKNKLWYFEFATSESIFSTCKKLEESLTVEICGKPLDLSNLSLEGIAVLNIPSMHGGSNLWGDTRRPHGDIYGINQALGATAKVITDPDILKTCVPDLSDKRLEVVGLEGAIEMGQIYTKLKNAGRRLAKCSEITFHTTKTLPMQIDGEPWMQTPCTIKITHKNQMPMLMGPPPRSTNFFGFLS

This test addresses Diacylglycerol kinase alpha (Homo sapiens, UniProt P23743). The test is described as follows: Inhibition of recombinant human DGKalpha using DLG as substrate preincubated with compound followed by substrate addition and measured after 90 mins in presence of ATP by ADP-Glo reagent based analysis. In general terms: In ADP-Glo the light output rises with the ADP produced.
In the case of `Cc1nc2c(N3C[C@@H](C)N(C(c4ccc(F)cc4)c4ccc(F)cc4)C[C@@H]3C)nc(=O)[nH]c2n1C[C@@H]1CCCO1`, the IC50 is ≤ 10 nM.
Turning to `C[C@@H]1CN(c2nc(=O)n(C)c3c2cnn3C)[C@@H](C)CN1C(c1ccc(F)cc1)c1ccc(F)cc1`, the IC50 was ≤ 10 nM.
Turning to `C[C@@H]1CN(c2nc(=O)n(C)c3c2ncn3CC2(O)CCC2)[C@@H](C)CN1C(c1ccc(Cl)cc1)C1CC(F)(F)C1` (stereo partly specified), the half-inhibitory concentration (IC50) is ≤ 10 nM.
The value for `CC[C@@H]1CN(c2nc(=O)n(C)c3c2nc(C)n3C[C@@H]2CCCO2)[C@@H](C)CN1C(c1ccc(C(F)(F)F)cc1)C1CC(F)(F)C1` (stereo partly specified) was ≤ 10 nM; that for `C[C@@H]1CN(c2nc(=O)n(C)c3c2nnn3C[C@H]2CCCO2)[C@@H](C)CN1C(c1ccc(C(F)(F)F)cn1)c1ccc(C(F)(F)F)cn1` was ≤ 10 nM.
The value for `C[C@@H]1CN(c2nc(=O)n(C)c3c2nnn3C[C@H]2CCCO2)[C@@H](C)CN1C(c1ccc(F)cc1)c1ccc(F)cc1` was ≤ 10 nM.

The record behind these values is ChEMBL document CHEMBL6134928, “Novel Bicyclic DGK Inhibitors for Treating Metastatic Melanoma” (ACS Med Chem Lett, 2025).
